Results published in PubChem BioAssay (NCI).
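1) Cells in 96-well plates. 2) Compound, 48 h, 5 concentrations. 3) Linear interpolation between surrounding doses. 4) Unreached endpoint = highest concentration. TGI: total growth inhibition.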

What was measured:
Test in all cases: NCI-60 cell line screen, 48 h
[1] = system: OVCAR-5 ovarian
[2] = system: HCT-15 colon
[3] = system: ACHN renal
[4] = system: NCI-H522 lung
[5] = system: LOX IMVI melanoma
[6] = system: UACC-257 melanoma
[7] = system: SNB-75 CNS
[8] = system: SK-OV-3 ovarian
[9] = system: T-47D breast
[10] = system: HL-60(TB) leukemia

SMILES	TGI [1]	TGI [2]	TGI [3]	TGI [4]	TGI [5]	TGI [6]	TGI [7]	TGI [8]	TGI [9]	TGI [10]
CC1(CCOCc2ccccc2)NC(=O)NC1=O (stereo not drawn)	> 100 µM	> 100 µM	> 100 µM	> 100 µM	> 100 µM	> 100 µM				
COc1ccc(S(=O)(=O)c2nnc(S(=O)(=O)Cc3ccccc3)s2)cc1	54.5 µM	50.5 µM	30.6 µM	27.1 µM		31.4 µM	31.8 µM	44.6 µM	91.9 µM	
N#Cc1c(N)nc2n[nH]c(N)c2c1-c1ccc(Cl)cc1	> 100 µM	> 72.6 µM	9.69 µM	9.11 µM	16.9 µM	> 100 µM		7.33 µM	4.62 µM	> 100 µM
CC12CC(c3ccccc3O1)C(C(=O)Nc1ccc(Cl)cc1Cl)C(=O)N2 (stereo not drawn)	> 100 µM	> 100 µM	67.3 µM	> 100 µM	49.5 µM	> 100 µM		> 100 µM	70.9 µM	21.2 µM
O=c1cnn(C/C=C/CO)c(=O)[nH]1	> 100 µM	> 100 µM	> 100 µM	> 100 µM	86 µM	> 100 µM	> 100 µM		> 100 µM	> 100 µM
COc1ccc(-[n+]2nc(S(=O)(=O)O)c(/C=C/c3ccc(N(C)C)cc3)cc2C#N)cc1	> 100 µM	> 100 µM	> 100 µM	> 100 µM	> 100 µM	> 100 µM	> 100 µM	> 100 µM	> 100 µM	
O=[N+]([O-])c1ccc2c(c1)C1=C(CO2)Cc2ccccc2O1	54.7 µM	31.2 µM	29.9 µM	54.5 µM	30.2 µM	33.5 µM	> 100 µM	> 100 µM	> 100 µM	
CSc1nc(Nc2cccc(C(F)(F)F)c2)c2c(N)nn(C)c2n1	> 100 µM	> 100 µM	> 100 µM	> 100 µM	> 100 µM	> 100 µM	> 100 µM	> 100 µM	> 100 µM	
Nc1ncnc2c1ncn2[C@@H]1C[C@@H]1CO	> 100 µM	> 100 µM	> 100 µM	> 100 µM	> 100 µM	> 100 µM			> 100 µM	> 100 µM
COc1ccc2cc(/C=N/NC(=O)Nc3ccccc3)ccc2c1	> 100 µM	> 100 µM			> 100 µM	> 100 µM	> 100 µM	> 100 µM	> 100 µM	> 100 µM
COC(=O)C1=C(O)C(C(=O)OC)[C@]2(O)[C@H](C(=O)OC)[C@H]1C[C@@H](c1ccc(C(F)(F)F)cc1)[C@H]2C(=O)OC (stereo partly drawn)	15 µM	> 100 µM	> 100 µM		7.3 µM	23.5 µM	26.7 µM	> 100 µM	> 100 µM	30.2 µM
Cn1c(=O)c2c(nc(Cc3ccccc3)n2CC(=O)O)n(C)c1=O	> 100 µM	> 100 µM	> 100 µM	> 100 µM	> 100 µM	> 100 µM	> 100 µM		> 100 µM	
OC1C#CCSCC#C/C=C\1 (stereo not drawn)	> 100 µM	> 100 µM	> 100 µM	32.9 µM	> 100 µM	> 100 µM	> 100 µM	> 100 µM		71.8 µM
CCOC(=O)CN1C(=O)c2ccc(NC(=O)C(=O)O)cc2S1(=O)=O	> 100 µM	> 100 µM	> 100 µM	> 100 µM	> 100 µM	> 100 µM		> 100 µM	> 100 µM	> 100 µM
Cn1c(=O)n(C2(C)C[Se]C2)c2ccccc21	> 100 µM	> 100 µM	> 100 µM	> 100 µM	> 100 µM	> 100 µM	> 100 µM	> 100 µM		> 100 µM
O=C(O)CCC(NC(=O)c1ccc(Nc2nc3cc(C(F)(F)F)ccc3nc2-c2ccccc2)cc1)C(=O)O (stereo not drawn)	> 100 µM	> 100 µM		> 91.6 µM	> 100 µM	> 100 µM	> 100 µM	> 100 µM		> 100 µM
COC(=O)c1ccccc1/C=C1\Cc2ccc(C)c(C)c2C1=O	> 100 µM	> 100 µM	> 100 µM	> 100 µM	> 100 µM	> 100 µM	> 100 µM		> 100 µM	> 100 µM
COC(=O)/C=C(\C)CC(O)/C=C(\C)CCC=C(C)C (stereo not drawn)	> 100 µM	> 100 µM	> 100 µM		> 100 µM	> 100 µM	57.1 µM	> 100 µM		46.2 µM
COc1ccc(/C=C2\N=C(SC)N(CN3CCOCC3)C2=O)cc1	> 100 µM	> 100 µM	> 100 µM	> 100 µM	> 100 µM		> 100 µM	> 100 µM		> 100 µM
CN(CC(=O)O)c1ncc2c(n1)CCCC2	> 100 µM	> 100 µM	> 100 µM	> 100 µM	> 100 µM	> 100 µM	> 100 µM	> 100 µM		> 100 µM
O=c1[nH]nc(Cc2ccccc2)n1/N=C/c1ccccc1O	> 100 µM	> 100 µM	> 100 µM	> 100 µM	> 100 µM	> 100 µM		> 100 µM	> 100 µM	> 100 µM
O=C1C(c2c(O)[nH]c3ccc(F)cc23)=Nc2ccccc21	> 100 µM	> 100 µM	> 100 µM	> 100 µM	> 100 µM	> 100 µM	15.1 µM	24.9 µM		
CC(C)C(=O)OCC1OC(n2c(Br)nc3c(=O)[nH]c(N)nc32)C(OC(=O)C(C)C)C1OC(=O)C(C)C (stereo not drawn)	> 100 µM	> 100 µM	> 100 µM	> 100 µM	55.5 µM	> 100 µM	> 100 µM	> 100 µM	> 100 µM	
NCc1ccccc1-c1c2nc(c(-c3ccccc3CN)c3ccc([nH]3)c(-c3ccccc3CN)c3nc(c(-c4ccccc4CN)c4ccc1[nH]4)C=C3)C=C2	33.8 µM	49.4 µM	35.3 µM		56.3 µM	47.7 µM	24.7 µM			33.3 µM
